# Source: US11179348B2, “Combination comprising pterostilbene for the treatment of cancer” (FUNDACIÓN UNIVERSIDAD CATÓLICA DE VALENCIA SAN VICENTE …, priority 2015, dated 2021)
# Marks after values point to notes of the source that are not given here.
# Assays:
# BxPC-3 pancreatic cancer = assay: In vivo growth of BxPC-3 pancreatic cancer xenografts; set-up: species or system human; conditions: BxPC-3-RFP; 35 days after inoculation; Pter and/or CRC
# ACTH = assay: Plasma ACTH levels (ELISA) in tumor-bearing mice; assay type: in vivo
# Description: Measurement of ACTH, Corticosterone, and NORA Levels.
# Plasma levels of ACTH (Calbiotech, Inc., Spring Valley, Calif.), corticosterone (Kamiyama Biomedical Co., Seattle, Wash.), and NORA (IBL, Hamburg, Germany) were quantified by ELISA according to the instructions of the suppliers.
# HepG2 cells = assay: GSH levels and glutathione- and oxidative stress-related enzyme activities in HepG2 cells growing in vivo; set-up: species or system human; conditions: HepG2, in vivo Pter, day 35
# Protocol: (§1) To measure enzyme activity, isolated tumor cells were homogenized in 0.1 M phosphate buffer (pH 7.2) at 4° C. GCL and GSS activities were measured as described previously (Obrador, E. et al. Hepatology 35, 74-81 (2002)). GPX (selenium dependent) activity was measured as described by Flohé and Gunzler (Flohe, L. & Gunzler, W. A. Methods Enzymol 105, 114-121 (1984)) using H2O2 as a substrate. GSR activity was determined as described by Akerboom and Sies (Akerboom, T. P. et al, Bull Eur Physiopathol Respir 17 Suppl, 221-227 (1981)). GGT activity was measured as described previously (Obrador, E. et al. Hepatology 35, 74-81 (2002)). GST activity was measured using an assay kit from Sigma. TXNRD activity, defined by the concentration of sodium-lipoate (disulfide) reduced to dehydrolipoate (dithiol) per milligram protein, was measured as previously described (Javvadi, P. et al. Cancer Res 70, 1941-1950 (2010)). SOD activity was measured as described by Flohé and Otting (Flohe, L. & Otting, F. Methods Enzymol 105, 93-104 (1984).) using 2 mM cyanide in the assay medium to distinguish mangano-type enzyme (SOD2) from the cuprozinc type (SOD1). CAT activity was analyzed as described by Aebi (Aebi, H. Methods Enzymol 105, 121-126 (1984)). NOX activity was measured by chemiluminescence following the methodology of Wind et al. (Wind, S. et al. Comparative pharmacology of chemically distinct NADPH oxidase inhibitors. Br J Pharmacol 161, 885-898 (2010)). Protein concentration was determined with the Pierce BCA protein assay (Fisher Scientific, Waltham, Mass.).
# (§2) GSH, GSSG, NADP^+ and NADPH Determination.
# (§3) GSH and GSSG were determined, following procedures previously described (Obrador, E. et al. PLoS One 9, e96466 (2014)), by LC/MS using the same equipment described above for pterostilbene determination. Cell processing was performed according to published methodology, where rapid N-ethylmaleimide derivatization was used to prevent GSH auto-oxidation (Asensi, M. et al. Anal Biochem 217, 323-328 (1994)). NADP^+ and NADPH were quantitated using an assay kit from Sigma (St. Louis, Mo.).
# (§4) Isolation of Tumor Cells from Mouse Xenografts Using Enzymatic Digestion and a double Ficoll gradient.
# (§5) To maximize the amount of isolated cells, avoiding the use of RFP-transfected cells and subsequent laser microdissection, an alternative methodology was set up. To maximize cell yield and viability the following combination of enzymes was used: collagenase III (200 U/ml; Sigma-Aldrich), DNase I (200 U/ml; Sigma-Aldrich) and trypsin (5 mg/ml; Invitrogen), and a non-enzymatic dissociation buffer (NEDB, Invitrogen). Briefly, mice were killed, and tumors were removed (avoiding skin, muscle and fat) into cold culture media and processed immediately. The tumors were minced into 1-3 mm fragments, which were then incubated with the dissociation solution (see above) for 30 min at 37° C. The tumor fragments were mixed up and down every 10 min using a […] micropipette with a tip cut to a diameter adapted to tissue fragment size. After each incubation period, the fragments were filtered through a […] nylon mesh cell strainer (BD Biosciences, San Diego, Calif., USA). The released cells were centrifuged at 1200 r.p.m. for 2 min and stored in cold CO2-independent medium with 30% FCS at […]. Fresh dissociation solution was added to the remaining tissue fragments for 30 min. Dissociation was stopped when no additional cells were released. The fragments were pushed through a sieve and all cells from all incubation periods were pooled and counted.
# (§6) The dissociated cells were layered onto a double Ficoll gradient (Histopaque; Sigma-Aldrich; densities 1.077 and 1.119) and spun at 700 g for 30 min at room temperature. Cells removed from both interfaces were pooled and washed two times in CO2-independent medium and stored at 4° C. Debris and red blood cell elimination was improved with the dual-density gradient. […]
# Caco-2 cells = assay: GSH levels and glutathione- and oxidative stress-related enzyme activities in Caco-2 cells growing in vivo; set-up: species or system human; conditions: Caco-2, in vivo Pter, day 28
# Protocol: as §1, §2, §3, §4, §5, §6
# human melanoma = assay: Effect of pterostilbene on human melanoma in vivo (growth, Ki-67, TUNEL, nuclear Nrf2)
# Protocol: Animals, Tumor Growth, and In Vivo Administration of Pter.
# Female nu/nu nude mice (6-8 weeks; Charles Rivers Laboratories, Wilmington, Mass.) were fed ad libitum on a standard diet (Harlan Teklad Animal Diets & Bedding, Madison, Wis.). Mice were kept on a 12-h-light/12-h-dark cycle with the room temperature at 22° C. […] For cancer xenograft experiments, mice were inoculated s.c. with 10×10^6 cancer cells per mouse. Tumor volume was calculated based on two dimensions, measured using calipers, and was expressed in mm^3 according to V=0.5a×b^2, where a and b are the long and the short diameters of the tumor, respectively. For histological analysis xenograft samples were first fixed in 4% formaldehyde, paraffin embedded, and stained as indicated below. Mice were monitored after inoculation, and tumor measurements were taken every 2 days. For pharmacokinetic and treatment studies Pterostilbene (Green Molecular S. L., Paterna, Spain) [dissolved in DMSO:ethanol (2:1), 50 mg Pter/ml] was administered i.v. through the jugular vein (where, previously, a permanent catheter was surgically fixed). Administration was slowly performed during 1-2 min.
# Monoclonal mouse anti-human HMB45 antibodies (Abcam, Cambridge, UK) were used for immunohistochemical detection of melanoma cells. For that purpose, the tumors were fixed and paraffin embedded as described above. Immunohistochemical analysis was applied to tissue slices (5 μm thick) following the standard methodology recommended by Abcam. A horseradish peroxidase-conjugated goat anti-mouse polyclonal (Abcam) was used as secondary antibody.
# Monoclonal mouse anti-human Ki-67 (Dako, Sant Cugat del Vallés, Spain) were used for immunohistochemical detection of the tumor growing fraction. Immunohistochemical analysis was applied to tissue slices (5 μm thick) following the standard methodology recommended by Dako. A biotin-conjugated goat anti-rabbit polyclonal (Dako) was used as secondary antibody.
# DNA strand breaks in apoptotic cells were assayed by using a direct TUNEL labeling assay (Boehringer, Mannheim, Germany) and fluorescence microscopy following manufacturer's methodology.
# Nrf2 Gene Transfer and Measurement.
# The Tet-Off Advanced Inducible Gene Expression System (Clontech, Palo Alto, Calif.) was used to insert the human Nrf2 gene and for transfection into melanoma cells following manufacturer's instructions. Tet-off cells stably expressed Tet-regulated pTRE-Tight-Nrf2 giving up to an increased Nrf2 gene expression (Tet-Nrf2 cells). To suppress Nrf2 protein levels Tet-Nrf2 cells were cultured in the presence of 2 mg tetracycline (Sigma)/10^6 cells. The NE-PER extraction kit from Thermo Scientific (Rockford, Ill.) was used for nuclear protein extraction according to the manufacturer's instructions. The protein content was determined by the Pierce BCA protein assay. The antibodies (mouse monoclonal primary antibodies) against Nrf2 were purchased from Abcam. A total of 50 mg of protein was boiled in Laemmli buffer and resolved by 12.0% SDS-PAGE. Proteins were transferred to a nitrocellulose membrane (Hybond C-extra, GE Healthcare Europe GmbH, Barcelona, Spain) and subjected to Western blotting. The blotted membrane was blocked for 1 h at room temperature in Tris-buffered saline (TBS) containing 5% (w/v) membrane-blocking reagent (non-fat dried milk). All antibody incubations were carried out at room temperature in TBS containing 1% membrane-blocking reagent. […] Protein bands were quantified using laser densitometry.
# [1] = tumors of Pter-treated melanoma-bearing mice
compound,measurement,setting,value
"COc1cc(/C=C/c2ccc(O)cc2)cc(OC)c1 [Pter, trans-3,5-dimethoxy-4′-hydroxystilbene]",Tumor vol.,BxPC-3 pancreatic cancer,226 ± 63* mm^3
same,ACTH,"ACTH; A549-bearing mice, day 35, 6 h circadian time",79 ± 19 pg/mL plasma
same,ACTH,"ACTH; AsPC-1-bearing mice, day 28, 6 h circadian time",112 ± 31 pg/mL plasma
same,ACTH,"ACTH; BxPC-3-bearing mice, day 35, 6 h circadian time",68 ± 11 pg/mL plasma
same,ACTH,"ACTH; Caco-2-bearing mice, day 28, 6 h circadian time",35 ± 15 pg/mL plasma
same,ACTH,"ACTH; HT-29-bearing mice, day 21, 6 h circadian time",44 ± 16 pg/mL plasma
same,ACTH,"ACTH; HepG2-bearing mice, day 35, 6 h circadian time",116 ± 25 pg/mL plasma
same,ACTH,"ACTH; LNCaP-bearing mice, day 49, 6 h circadian time",49 ± 15 pg/mL plasma
same,ACTH,"ACTH; MCF-7-bearing mice, day 28, 6 h circadian time",44 ± 9 pg/mL plasma
same,ACTH,"ACTH; MDA-MB-231-bearing mice, day 35, 6 h circadian time",65 ± 17 pg/mL plasma
same,ACTH,"ACTH; PC-3-bearing mice, day 21, 6 h circadian time",102 ± 30 pg/mL plasma
same,ACTH,"ACTH; SK-OV-3-bearing mice, day 49, 6 h circadian time",63 ± 19 pg/mL plasma
same,ACTH levels in plasma,"ACTH; melanoma-bearing mice, pterostilbene treatment (FIG. 2B)",decreased
same,CAT,HepG2 cells,1.1 ± 0.3 mU/10^6 cells
same,GCL,HepG2 cells,50 ± 15 mU/10^6 cells
same,GSH,HepG2 cells,8.5 ± 2.6 nmol/10^6 cells
same,GSS,HepG2 cells,4.8 ± 0.9 mU/10^6 cells
same,GSSG,HepG2 cells,0.3 ± 0.1 nmol/10^6 cells
same,SOD1,HepG2 cells,0.1 ± 0.02 U/10^6 cells
same,SOD2,HepG2 cells,0.02 ± 0.01 U/10^6 cells
same,CAT,Caco-2 cells,0.7 ± 0.2 mU/10^6 cells
same,GCL,Caco-2 cells,45 ± 14 mU/10^6 cells
same,GSH,Caco-2 cells,8 ± 3 nmol/10^6 cells
same,GSS,Caco-2 cells,5.5 ± 1.9 mU/10^6 cells
same,GSSG,Caco-2 cells,0.2 ± 0.1 nmol/10^6 cells
same,SOD1,Caco-2 cells,0.8 ± 0.3 U/10^6 cells
same,SOD2,Caco-2 cells,0.04 ± 0.01 U/10^6 cells
same,melanoma growth inhibition at lower dose,human melanoma; 20 mg/kg vs 30 mg/kg,less effective
same,melanoma growth inhibition at higher dose,human melanoma; 40 mg/kg vs 30 mg/kg,no further inhibition
same,nuclear Nrf2 in melanoma cells,human melanoma; in vivo Pter-treated vs control melanoma-bearing mice (FIG. 4C),decreased
same,apoptotic cell death in tumors (TUNEL),human melanoma; [1],increase
same,melanoma cell proliferation in tumors (Ki-67 staining),human melanoma; [1],decrease
